# Reference: publication PMC9481151, “Discovery of new symmetrical and asymmetrical nitrile-containing 1,4-dihydropyridine derivatives as dual kinases and P-glycoprotein inhibitors: synthesis, in vitro assays, and in silico studies” (Journal of Enzyme Inhibition and Medicinal Chemistry, 2022)
# Key:
# CCRF-CEM = experiment: NCI single dose (10 µM) SRB screen; assay type: cell-based, human; conditions: leukaemia, 48 h
# HL-60(TB) = experiment: NCI single dose (10 µM) SRB screen; assay type: cell-based, human; conditions: leukaemia, 48 h
# K-562 = experiment: NCI single dose (10 µM) SRB screen; assay type: cell-based, human; conditions: leukaemia, 48 h
# EKVX = experiment: NCI single dose (10 µM) SRB screen; assay type: cell-based, human; conditions: non-small cell lung cancer, 48 h
# NCI-H460 = experiment: NCI single dose (10 µM) SRB screen; assay type: cell-based, human; conditions: non-small cell lung cancer, 48 h
# HCT-116 = experiment: NCI single dose (10 µM) SRB screen; assay type: cell-based, human; conditions: colon cancer, 48 h
# HT29 = experiment: NCI single dose (10 µM) SRB screen; assay type: cell-based, human; conditions: colon cancer, 48 h
# KM12 = experiment: NCI single dose (10 µM) SRB screen; assay type: cell-based, human; conditions: colon cancer, 48 h
# SK-MEL-2 = experiment: NCI single dose (10 µM) SRB screen; assay type: cell-based, human; conditions: melanoma, 48 h
# SK-MEL-5 = experiment: NCI single dose (10 µM) SRB screen; assay type: cell-based, human; conditions: melanoma, 48 h
# OVCAR-5 = experiment: NCI single dose (10 µM) SRB screen; assay type: cell-based, human; conditions: ovarian cancer, 48 h
# SK-OV-3 = experiment: NCI single dose (10 µM) SRB screen; assay type: cell-based, human; conditions: ovarian cancer, 48 h
# A498 = experiment: NCI single dose (10 µM) SRB screen; assay type: cell-based, human; conditions: renal cancer, 48 h
# ACHN = experiment: NCI single dose (10 µM) SRB screen; assay type: cell-based, human; conditions: renal cancer, 48 h
# MCF7 = experiment: NCI single dose (10 µM) SRB screen; assay type: cell-based, human; conditions: breast cancer, 48 h
# Pseudomonas aeruginosa = experiment: Agar well diffusion method; conditions: for zone of inhibition at 1000 µg/mL: Pseudomonas aeruginosa, 24 h, read-out: Diameter of inhibition zone, P. aeruginosa; for % activity index, P. aeruginosa: relative to ciprofloxacin
Compound,GI% CCRF-CEM (CCRF-CEM),GI% HL-60(TB) (HL-60(TB)),GI% K-562 (K-562),GI% EKVX (EKVX),GI% NCI-H460 (NCI-H460),GI% HCT-116 (HCT-116),GI% HT29 (HT29),GI% KM12 (KM12),GI% SK-MEL-2 (SK-MEL-2),GI% SK-MEL-5 (SK-MEL-5),GI% OVCAR-5 (OVCAR-5),GI% SK-OV-3 (SK-OV-3),GI% A498 (A498),GI% ACHN (ACHN),GI% MCF7 (MCF7),melting point [°C],zone of inhibition at 1000 µg/mL (Pseudomonas aeruginosa) [mm],"% activity index, P. aeruginosa (Pseudomonas aeruginosa) [%]"
"COC(=O)C1=C(C)NC(C)=C(C(=O)OC)C1c1cccc(C#N)c1 [Compound 1a, Dimethyl 4-(3-cyanophenyl)-2,6-dimethyl-1,4-dihydropyridine-3,5-dicarboxylate]",– (Only GI% ≥ 10 are shown),– (Only GI% ≥ 10 are shown),– (Only GI% ≥ 10 are shown),– (Only GI% ≥ 10 are shown),– (Only GI% ≥ 10 are shown),– (Only GI% ≥ 10 are shown),– (Only GI% ≥ 10 are shown),– (Only GI% ≥ 10 are shown),– (Only GI% ≥ 10 are shown),– (Only GI% ≥ 10 are shown),– (Only GI% ≥ 10 are shown),– (Only GI% ≥ 10 are shown),– (Only GI% ≥ 10 are shown),– (Only GI% ≥ 10 are shown),– (Only GI% ≥ 10 are shown),200 to 202,12,52.2
"CCOC(=O)C1=C(C)NC(C)=C(C(=O)OCC)C1c1cccc(C#N)c1 [Compound 1b, Diethyl 4-(3-cyanophenyl)-2,6-dimethyl-1,4-dihydropyridine-3,5-dicarboxylate]",– (Only GI% ≥ 10 are shown),13%,43%,– (Only GI% ≥ 10 are shown),– (Only GI% ≥ 10 are shown),11%,– (Only GI% ≥ 10 are shown),27%,– (Only GI% ≥ 10 are shown),– (Only GI% ≥ 10 are shown),– (Only GI% ≥ 10 are shown),– (Only GI% ≥ 10 are shown),– (Only GI% ≥ 10 are shown),– (Only GI% ≥ 10 are shown),15%,144 to 146,10,43.5
"COC(=O)C1=C(C)NC(C)=C(C(=O)OCC(C)C)C1c1cccc(C#N)c1 (racemic) [Compound 2b, (±)-3-Isobutyl 5-methyl 4-(3-cyanophenyl)-2,6-dimethyl-1,4-dihydropyridine-3,5-dicarboxylate]",– (Only GI% ≥ 10 are shown),18%,15%,12%,– (Only GI% ≥ 10 are shown),18%,– (Only GI% ≥ 10 are shown),– (Only GI% ≥ 10 are shown),– (Only GI% ≥ 10 are shown),– (Only GI% ≥ 10 are shown),– (Only GI% ≥ 10 are shown),– (Only GI% ≥ 10 are shown),– (Only GI% ≥ 10 are shown),– (Only GI% ≥ 10 are shown),15%,133 to 135,13,56.5
